In patent US10160773B2, “Method for inducing cytotoxicity in cancer cells” (King Fahd University of Petroleum and Minerals, priority 2016, dated 2018):

What was measured:
[1] = tested on: A549 (lung cancer cells); test: In vitro cytotoxic activity, MTT assay, A549; assay type: cell-based, human; conditions: 24 h incubation with complex, mean ± standard deviation
Experimental: (§1) To examine the possible anticancer effect of complexes 1, 2, and cisplatin, a panel of three human tumor cell lines, A549 (lung cancer cells), MCF7 (breast cancer cells) and HCT15 (colon cancer cells) was used. The different human carcinoma cell cultures (A549, MCF7, HCT15) were first seeded at the concentration of 2×10^4 cells per mL in their respective growth mediums containing 10% FBS (fetal bovine serum) in a 96-well tissue culture plate and were incubated for 72 h at 37° C., 5% CO2 in air and 90% relative humidity in a CO2 incubator. After that the cell cultures were incubated for 24 h with 100 μL of cisplatin and the complexes (1-3) having 100, 50, 25 and 12.5 μM concentrations, prepared in growth medium. Further, the cultures were incubated with 100 μL of vital mitochondrial tetrazolium dye (3-(4,5-dimethylthiazol-2-yl)-2,5-diphenyltetrazolium bromide) (0.5 mg/ml) in a CO2 incubator at 37° C. in the dark for 4 h. After incubation, purple colored formazan crystals were formed due to the reduction of dye by mitochondrial succinate dehydrogenase enzyme. The resultant crystals were solublized by adding 100 μL of dimethylsulfoxide (DMSO). The colored solution formed was thoroughly mixed and read spectrophotometrically at 570 nm with Lab systems Multiskan EX-Enzyme-linked immunosorbent assay (EX-ELISA) reader against a reagent blank. All data presented are mean±standard deviation.
(§2) The anticancer activity of complexes 1-3 as well as cisplatin was evaluated against a panel of representative human tumor cell lines, which include, lung cancer cells (A549), breast cancer cells (MCF7) and colon cancer cells (HCT15). The results of in vitro cytotoxic activity are expressed as IC50 (concentration causing 50% reduction in cell viability) and are presented in Table 4. […] For 1, the IC50 values are closer to cisplatin. In going from 1 to 2, the substitution of two chlorine atoms by the chelating diamine ligand brought about a 1.5-3 times decrease in the antiproliferative activity of 2.

[2] = tested on: MCF7 (breast cancer cells); test: In vitro cytotoxic activity, MTT assay, MCF7; assay type: cell-based, human; conditions: 24 h incubation with complex, mean ± standard deviation
Experimental: as §1, §2

[3] = tested on: HCT15 (colon cancer cells); test: In vitro cytotoxic activity, MTT assay, HCT15; assay type: cell-based, human; conditions: 24 h incubation with complex, mean ± standard deviation
Experimental: as §1, §2

[4] = tested on: A549, MCF7 and HCT15 cells; test: In vitro cytotoxic activity, statements on the whole panel of three tumor cell lines; assay type: cell-based, human
Experimental: as §1, with “After incubation, purple colored formazan crystals were formed due to the reduction of dye by mitochondrial succinate dehydrogenase enzyme. The resultant crystals were solublized by adding 100 μL of dimethylsulfoxide (DMSO).” left out, “All data presented are mean±standard deviation.” left out
The anticancer activity of complexes 1-3 as well as cisplatin was evaluated against a panel of representative human tumor cell lines, which include, lung cancer cells (A549), breast cancer cells (MCF7) and colon cancer cells (HCT15). […]

[5] = Cyclic voltammetry of the complexes at glassy carbon electrode; assay type: physicochemical; conditions: cyclic voltammetric measurements
Experimental: The voltammetric measurements were performed by using three electrode based Auto Lab electrochemical workstation (Netherland). The working electrode was glassy carbon electrode (GCE), while Ag/AgCl and platinum were used as reference counter electrodes respectively. The weights of the chemicals were measured by using GR-2000 electrical balance. The pH of the buffer was controlled by Accumet® XL50 pH meter. For electrochemical analysis, the compounds 1 and 2 were dissolved in the ethanol as their solubility was very poor in aqueous medium. Prior to each analysis, the GCE was polished as a mirror like surface with alumina slurry on the synthetic clothe. The cyclic voltammograms for various analyses were recorded from 0.0 V to +1.3 V with a scan rate of 0.1 V/s. Electrochemical behavior may be studied using the methods described by Al-Jaroudi et al. and Seliman et al. (incorporated by reference) and well known model proteins. […]
To get an insight into the reactivity of the complexes, the interactions of complexes 1 and 2 with model proteins, L-tyrosine, glutathione and lysozyme were studied electrochemically. The electrochemical behavior of complexes 1 and 2 in the presence of the proteins was analyzed by cyclic voltammetric technique (CV). […]

[6] = molecular target: T1, Lysozyme protein (Gallus gallus, UniProt P00698); test: Interaction with lysozyme by cyclic voltammetry; parameters: species or system chicken; conditions: 0.2 mM complex
T1 construct: the Lysozyme protein attained from chicken egg white; purchased Sigma-Aldrich; host or cells: chicken egg white (natural source)
T1 sequence (P00698 19-147): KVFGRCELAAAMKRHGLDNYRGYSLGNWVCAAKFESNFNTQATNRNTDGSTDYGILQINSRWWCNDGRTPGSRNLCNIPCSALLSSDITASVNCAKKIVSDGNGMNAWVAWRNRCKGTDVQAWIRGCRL
Experimental: The voltammetric measurements were performed by using three electrode based Auto Lab electrochemical workstation (Netherland). The working electrode was glassy carbon electrode (GCE), while Ag/AgCl and platinum were used as reference counter electrodes respectively. The weights of the chemicals were measured by using GR-2000 electrical balance. The pH of the buffer was controlled by Accumet® XL50 pH meter. For electrochemical analysis, the compounds 1 and 2 were dissolved in the ethanol as their solubility was very poor in aqueous medium. Prior to each analysis, the GCE was polished as a mirror like surface with alumina slurry on the synthetic clothe. The cyclic voltammograms for various analyses were recorded from 0.0 V to +1.3 V with a scan rate of 0.1 V/s. Electrochemical behavior may be studied using the methods described by Al-Jaroudi et al. and Seliman et al. (incorporated by reference) and well known model proteins. See S. S. Al-Jaroudi, M. Altaf, A. Al-Saadi, A.-N. Kawde, S. Altuwaijri, S. Ahmad and A. A. Isab, Biometals, 2015, 28, 827-844; and A. Seliman, M. Altaf, A. Kawde, M. Wazeer and A. Isab, J. Coord. Chem., 2014, 67, 3431-3443, each incorporated herein by reference in their entirety.
Moreover, the interaction of these compounds was also explored with the Lysozyme protein attained from chicken egg white.

[7] = Solubility in aqueous medium; assay type: physicochemical

Compound | IC50 [1] [µM] | IC50 [2] [µM] | IC50 [3] [µM] | decrease in the antiproliferative activity in going from 1 to 2 ([4]; 2 compared with 1, three cell lines) | stability of gold(III) center during reaction with L-tyrosine, glutathione and lysozyme [5] | effect of successive addition of Lysozyme on the complex peaks [6] | solubility in aqueous medium [7] | antiproliferative potency, rank among the complexes ([4]; A549, MCF7, HCT15) | interaction with Lysozyme (comparison) [6]
[Au(npen)2]Cl3 [Complex 2] | 10.3 ± 2.82 | 7.77 ± 1.82 | 4.23 ± 1.31 | 1.5-3 times | remained stable | decrease in the current intensities of the complex peaks | very poor | – | –
NC(c1cccc2ccccc12)C(N)c1cccc2ccccc12.O.O.[Au+3].[Cl-].[Cl-].[Cl-] (stereo not drawn) [Complex 1, [Au(npen)Cl2]Cl.2H2O] | 28.8 ± 4.02 | 11.8 ± 2.6 | 9.4 ± 1.93 | – | remained stable | decrease in the current intensities of the complex peaks | very poor | least active | more significant
N.N.[Cl][Pt][Cl] [Cisplatin, cisplatin, reference compound] | 42.9 ± 1.99 | 23.1 ± 3.78 | 23.1 ± 3.78 | – | – | – | – | – | –
